Results as given in article PMC5733478, “A Non-imaging High Throughput Approach to Chemical Library Screening at the Unmodified Adenosine-A3 Receptor in Living Cells” (Frontiers in Pharmacology, 2017).
Structures can show the parent of a compound that is named as a salt. Where two headings read alike, the source gives them in different places.

Biological target: T1, human A3AR (Homo sapiens, UniProt P0DMS8)
T1 construct: expressed in transfected cells
T1 sequence (P0DMS8 1-318): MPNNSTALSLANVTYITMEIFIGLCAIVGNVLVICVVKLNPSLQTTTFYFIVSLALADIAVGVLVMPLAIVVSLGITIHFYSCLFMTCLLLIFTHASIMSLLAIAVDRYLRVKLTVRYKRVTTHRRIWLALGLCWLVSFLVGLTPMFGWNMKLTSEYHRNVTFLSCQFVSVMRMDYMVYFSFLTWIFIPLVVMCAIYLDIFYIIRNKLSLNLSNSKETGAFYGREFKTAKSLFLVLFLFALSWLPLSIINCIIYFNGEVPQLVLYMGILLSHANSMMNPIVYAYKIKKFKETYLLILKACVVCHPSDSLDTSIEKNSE
Assay: LOPAC library primary screen: single concentration (10 μM) inhibition of 25 nM CA200645 binding, PHERAstar FS

[1] = compounds tested at 10 µM, % of control wells (1% DMSO and 25 nM CA200645), whole live cells expressing the A3AR, mean ± SD, three experiments in duplicate

Compound: C[N+](C)(C)CCOC(=O)CCC(=O)OCC[N+](C)(C)C [Succinylcholine chloride]
- % 25 nM CA200645 binding: 98.6 ± 15.7%

Compound: C[C@@](Cc1ccc(O)c(O)c1)(NN)C(=O)O [S-(-)-Carbidopa]
- % 25 nM CA200645 binding: 101.3 ± 7.8%

Compound: O=C1CCC(N2C(=O)c3ccccc3C2=O)C(=O)N1 (racemic) [(±)-Thalidomide]
- % 25 nM CA200645 binding: 108.7 ± 11.6%

Compound: CCN(CC)CCNC(=O)c1ccc(NS(C)(=O)=O)cc1.Cl.O [Sematilide monohydrochloride monohydrate]
- % 25 nM CA200645 binding: 97.5 ± 2.4%

Compound: CCCc1c(-c2ccc(O)cc2)nn(-c2ccc(O)cc2)c1-c1ccc(O)cc1
- % 25 nM CA200645 binding: 35.7 ± 9.6%

Compound: O=C(c1ccc(F)cc1)C1CCN(CCn2c(=O)[nH]c3ccccc3c2=O)CC1 [Ketanserin tartrate]
- % 25 nM CA200645 binding: 100.1 ± 15.2%

Compound: N=C(N)NC(=O)c1nc(Cl)c(N)nc1N [Amiloride hydrochloride]
- % 25 nM CA200645 binding: 88.5 ± 23.0%

Compound: Br.CCCN(CCC)C1CCc2ccc(O)cc2C1 (racemic) [(±)-7-Hydroxy-DPAT hydrobromide]
- % 25 nM CA200645 binding: 98.0 ± 1.6%

Compound: CNC(=O)[C@H]1O[C@@H](n2cnc3c(NCc4ccc(N)cc4)ncnc32)[C@H](O)[C@@H]1O [AB-MECA, reference compound]
- % 25 nM CA200645 binding: 48.5 ± 9.1%
- % Total CA200645 binding (% of 25 nM CA200645 binding in the presence of 10 μM compound, LOPAC full screen, A3AR CHO cells): 49.5 ± 5.8%

Compound: Cc1oncc1C(=O)Nc1ccc(C(F)(F)F)cc1 [Leflunomide]
- % 25 nM CA200645 binding: 100.1 ± 5.3%

Compound: CCOC(=O)C1=C(C)NC(C)=C(C(=O)OC)C1c1cccc([N+](=O)[O-])c1 (centres unmarked) [Nitrendipine]
- % 25 nM CA200645 binding: 96.1 ± 17.4%

Compound: NCCCCNCCCN [Spermidine trihydrochloride]
- % 25 nM CA200645 binding: 102.2 ± 19.0%

Compound: CN(C)CCC(c1ccc(Cl)cc1)c1ccccn1.O=C(O)/C=C\C(=O)O (racemic) [(±)-Chlorpheniramine maleate]
- % 25 nM CA200645 binding: 99.2 ± 9.9%

Compound: CC(N)c1cccc(Cl)c1Cl.Cl (racemic)
- % 25 nM CA200645 binding: 100.4 ± 9.9%

Compound: C=CCNc1ncnc2ccc(Br)cc12 [SMER28]
- % 25 nM CA200645 binding: 86.4 ± 8.7%

Compound: Ro 90-7501
- % 25 nM CA200645 binding: 72.1 ± 6.0%

Compound: O=C(O)C1CCNCC1 [Isonipecotic acid]
- % 25 nM CA200645 binding: 88.5 ± 19.5%

Compound: OC[C@H]1O[C@@H](n2cnc3c(N[C@H]4CCC[C@@H]4O)ncnc32)[C@H](O)[C@@H]1O [GR 79236X]
- % 25 nM CA200645 binding: 78.0 ± 19.3%

Compound: Cc1ccc(S(=O)(=O)O)cc1.NC[C@H]1O[C@@H](n2cnc3c(N)ncnc32)[C@H](O)[C@@H]1O
- % 25 nM CA200645 binding: 85.5 ± 26.7%

Compound: OC[C@H]1O[C@@H](n2cnc3c(NC4CCCCC4)ncnc32)[C@H](O)[C@@H]1O [N6-Cyclohexyladenosine]
- % 25 nM CA200645 binding: 92.9 ± 12.9%

Compound: CSc1nc(N)c2ncn([C@@H]3O[C@H](COP(=O)([O-])OP(=O)([O-])[O-])[C@@H](O)[C@H]3O)c2n1.O.[Na+].[Na+].[Na+]
- % 25 nM CA200645 binding: 100.3 ± 5.3%

Compound: O=C1NC(=O)/C(=C/c2ccc(-c3ccc(F)cc3O)o2)S1 [AS-252424]
- % 25 nM CA200645 binding: 45.8 ± 20.9%

Compound: CCc1cncnc1N1CCN(Cc2nc3ccc(C(F)(F)F)cc3[nH]2)CC1 [PF-4708671]
- % 25 nM CA200645 binding: 99.2 ± 13.5%

Compound: CCOC(=O)C1=C(O)C(=O)N(Cc2ccccc2)C1 [EBPC]
- % 25 nM CA200645 binding: 98.2 ± 13.5%

Compound: CN(C)C(=O)Oc1cccc([N+](C)(C)C)c1 [Neostigmine bromide]
- % 25 nM CA200645 binding: 100.2 ± 23.4%

Compound: CSC(N)=NCCC[C@H](N)C(=O)O [S-Methyl-L-thiocitrulline acetate]
- % 25 nM CA200645 binding [1]: 102.0 ± 13.0%

Compound: C[N+](C)(C)CCCCCCCCCC[N+](C)(C)C.[Br-].[Br-] [Decamethonium dibromide]
- % 25 nM CA200645 binding: 106.4 ± 21.3%

Compound: NC(=O)c1cc(N2CC2)c([N+](=O)[O-])cc1[N+](=O)[O-] [CB 1954]
- % 25 nM CA200645 binding [1]: 93.7 ± 2.8%

Compound: CC(=O)/C=C1\C(=O)N(C)c2ccccc21 [Supercinnamaldehyde]
- % 25 nM CA200645 binding: 98.9 ± 0.6%

Compound: CCCCNc1cc(C(=O)O)cc(S(N)(=O)=O)c1Oc1ccccc1 [Bumetanide]
- % 25 nM CA200645 binding (compounds tested at 10 µM, % of control wells (1% DMSO and 25 nM CA200645), […], mean ± SD, three experiments in duplicate): 94.3 ± 2.5%

Compound: CC12NC(Cc3ccccc31)c1ccccc12.O=C(O)/C=C\C(=O)O (single isomer, unassigned; (+)) [(+)-MK-801 hydrogen maleate]
- % 25 nM CA200645 binding: 104.8 ± 18.5%

Compound: CN1CCN2c3ccccc3Cc3ccccc3C2C1 (centres unmarked) [Mianserin hydrochloride]
- % 25 nM CA200645 binding: 92.0 ± 7.7%

Compound: C[C@H](N[C@@H](CCc1ccccc1)C(=O)O)C(=O)N1CCC[C@H]1C(=O)O.O.O [Enalaprilat dihydrate]
- % 25 nM CA200645 binding: 95.6 ± 2.1%

Compound: Cl.Cl.Cn1cnc(CCN)c1 [1-Methylhistamine dihydrochloride]
- % 25 nM CA200645 binding: 99.7 ± 10.5%

Compound: Clc1ccc2c(N3CCN(CCCN4CCN(c5ccnc6cc(Cl)ccc56)CC4)CC3)ccnc2c1 [Piperaquine tetraphosphate tetrahydrate]
- % 25 nM CA200645 binding: 96.8 ± 7.2%

Compound: C[N+]1(C)[C@@H]2CC[C@H]1C[C@@H](OC(=O)C(CO)c1ccccc1)C2 (some centres unmarked) [Atropine methyl nitrate]
- % 25 nM CA200645 binding [1]: 90.8 ± 8.8%

Compound: Cl.Cn1ccc2cc(NC(=O)Nc3cccnc3)ccc21 [SB 200646 hydrochloride]
- % 25 nM CA200645 binding: 81.7 ± 19.9%

Compound: Nc1ncnc2c1ncn2[C@@H]1O[C@H](CO)[C@@H](O)[C@H]1O [adenosine]
- % 25 nM CA200645 binding [1]: 92.3 ± 7.9%

Compound: O=[N+]([O-])c1cccc2c(Br)n[nH]c12 [3-Bromo-7-nitroindazole]
- % 25 nM CA200645 binding: 81.2 ± 6.7%

Compound: O=C(O)C1=CCCNC1 [Guvacine hydrochloride]
- % 25 nM CA200645 binding (% of control wells (1% DMSO and 25 nM CA200645), compounds at 10 µM, whole live cells expressing the A3AR, mean ± SD, three experiments in duplicate): 99.3 ± 14.1%

Compound: Nc1nc(Cl)nc2c1ncn2[C@@H]1O[C@H](CO)[C@@H](O)[C@H]1O [2-Chloroadenosine]
- % 25 nM CA200645 binding: 51.0 ± 6.7%

Compound: c1ccc2c(c1)[I+]c1ccccc1-2 [Diphenyleneiodonium chloride]
- % 25 nM CA200645 binding: 92.7 ± 5.6%

Compound: CN(C(=O)Cc1ccc(Cl)c(Cl)c1)C(CN1CCCC1)c1cccc(OCC(=O)O)c1.Cl (centres unmarked) [ICI 204,448 hydrochloride]
- % 25 nM CA200645 binding: 104.6 ± 7.5%

Compound: C[C@]12CCC(=O)C=C1CC[C@@H]1[C@@H]2[C@@H](O)C[C@@]2(C)[C@H]1CC[C@]2(O)C(=O)CO [Hydrocortisone]
- % 25 nM CA200645 binding: 84.4 ± 24.1%

Compound: Nc1nc2c(ncn2[C@@H]2O[C@H](CO)[C@@H](O)[C@@H]2O)c(=O)[nH]1.O [Ara-G hydrate]
- % 25 nM CA200645 binding: 96.8 ± 6.9%

Compound: CC(C)(C)NCC(O)c1ccc(O)c(CO)c1.CC(C)(C)NCC(O)c1ccc(O)c(CO)c1.O=S(=O)(O)O (centres unmarked) [Albuterol hemisulfate]
- % 25 nM CA200645 binding: 97.4 ± 12.0%

Compound: CCN(CC)C(C)CN1c2ccccc2Sc2ccccc21 (centres unmarked) [Ethopropazine hydrochloride]
- % 25 nM CA200645 binding: 108.3 ± 15.2%

Compound: Cc1ccc(/C(=C\CN2CCCC2)c2ccccn2)cc1.Cl [Triprolidine hydrochloride]
- % 25 nM CA200645 binding: 90.2 ± 0.5%

Compound: CN1[C@@H]2CC[C@H]1C[C@@H](OC(=O)c1cc(Cl)cc(Cl)c1)C2 [3-Tropanyl-3,5-dichlorobenzoate]
- % 25 nM CA200645 binding (% of control wells (1% DMSO and 25 nM CA200645), compounds at 10 µM, whole live cells expressing A3AR, mean ± SD, three experiments in duplicate): 96.9 ± 4.1%

Compound: O=C(O)CCC(C(=O)O)N1C(=O)c2ccccc2C1=O [L-Glutamic acid, N-phthaloyl-]
- % 25 nM CA200645 binding: 89.4 ± 32.8%

Compound: CN1Cc2c(N)cccc2C(c2ccccc2)C1 (centres unmarked) [Nomifensine maleate]
- % 25 nM CA200645 binding: 98.5 ± 14.7%

Compound: CCCC(CCC)C(=O)O [Valproic acid sodium]
- % 25 nM CA200645 binding: 99.8 ± 9.6%
